{"source": "PubChem BioAssay AID2635", "about": "(Broad Institute, 2010)", "note": "Inconclusive results are not listed. Active and inactive are the calls of the source. How the calls were made is not given here.", "data": [{"test_system": "BJ-TERT RAS-dependent fibroblast cytotoxicity, fluorescence", "experiment": "killing of RAS-driven BJ-TERT cells – cell-based, fluorescence viability readout, dose response (AID 2635)", "values": [{"smiles": "CC[C@@]1(O)C(=O)OCc2c1cc1n(c2=O)Cc2cc3c(CN(C)C)c(O)ccc3nc2-1", "EC50": "0.23 µM"}, {"smiles": "CC[C@@]1(O)C(=O)OCc2c1cc1n(c2=O)Cc2cc3ccccc3nc2-1", "EC50": "0.0178 µM"}, {"smiles": "Oc1ccccc1N=Nc1nc(-c2ccccc2)c(-c2ccccc2)[nH]1", "EC50": "0.374 µM"}, {"smiles": "CCc1ccc(/C=C2/SC(=S)N(CCC(=O)Nc3cccnc3)C2=O)cc1", "EC50": "> 6.67 µM (inactive)"}, {"smiles": "CC[C@H]1CN2CCc3cc(OC)c(OC)cc3[C@@H]2C[C@@H]1C[C@H]1NCCc2cc(OC)c(OC)cc21", "EC50": "0.0103 µM"}, {"smiles": "CC(=O)Nc1ccc(NC(=O)CN(c2cccc([N+](=O)[O-])c2)S(C)(=O)=O)cc1", "EC50": "> 6.67 µM (inactive)"}, {"smiles": "Cc1cccnc1Nc1nc(-c2ccccn2)cs1", "EC50": "0.985 µM"}, {"smiles": "Cc1ccc(N(C(=O)CCl)C(C(=O)NC2CCCCC2)c2cccnc2)cc1C", "note": "(stereo not drawn)", "EC50": "0.26 µM"}, {"smiles": "O=C(N/N=C/c1cccnc1)c1ccc(NC(=O)C(c2ccccc2)c2ccccc2)cc1", "EC50": "> 6.67 µM (inactive)"}, {"smiles": "CC(C)(C)c1ccc(C(=O)Nc2ccc(C(=O)NCc3cccnc3)cc2)cc1", "EC50": "> 6.67 µM (inactive)"}, {"smiles": "O=C(NCc1cccnc1)c1ccc(-c2cc3ccccc3oc2=O)cc1", "EC50": "> 6.67 µM (inactive)"}, {"smiles": "COc1ccc(C[C@H]2NC[C@H](O)[C@H]2OC(C)=O)cc1", "EC50": "0.0456 µM"}, {"smiles": "O=S(=O)(c1ccc2c(c1)C(=NO)c1cc(S(=O)(=O)N3CCCCC3)ccc1-2)N1CCCCC1", "EC50": "2.58 µM"}, {"smiles": "COc1ccc(S(=O)(=O)N2CCOCC2)cc1NC(=O)CCNC(=O)c1ccc(Br)cc1", "EC50": "> 6.67 µM (inactive)"}, {"smiles": "Cc1ccc(C(=O)Sc2cccccc2=O)cc1", "EC50": "0.13 µM"}, {"smiles": "O=C(CCCCCN1C(=O)c2cccc3cccc(c23)C1=O)NCc1cccnc1", "EC50": "> 6.67 µM (inactive)"}, {"smiles": "Cc1ccccc1Nc1nc(N)nc(CCl)n1", "EC50": "> 6.67 µM (inactive)"}, {"smiles": "O=S(=O)(c1ccc(NC(=S)NCc2cccnc2)cc1)N1CCCCC1", "EC50": "> 6.67 µM (inactive)"}, {"smiles": "COc1ccc(OC)c(Nc2nc(N)nc(CCl)n2)c1", "EC50": "> 6.67 µM (inactive)"}, {"smiles": "COc1ccc(C(C(=O)NC2CCCCC2)N(C(=O)CCl)c2cccc(Cl)c2)cc1", "note": "(stereo not drawn)", "EC50": "> 2.08 µM (inactive)"}, {"smiles": "CC(Oc1ccc(Cl)cc1Cl)c1nc(-c2ccc(NC(=O)c3cccnc3)cc2)no1", "note": "(stereo not drawn)", "EC50": "> 6.67 µM (inactive)"}, {"smiles": "C/C(=N\\Nc1ccc2nncn2n1)c1ccccn1", "EC50": "5.47 µM"}, {"smiles": "O=[N+]([O-])c1ccc(N=Nc2ncc[nH]2)cc1", "EC50": "> 6.67 µM (inactive)"}, {"smiles": "C=CCOc1ccccc1CN(C(=O)CCl)c1ccc2c(c1)OCO2", "EC50": "> 6.67 µM (inactive)"}, {"smiles": "CN1CCN(C(=O)CCCN2C(=O)/C(=C/c3cccc(Br)c3)SC2=S)CC1", "EC50": "> 6.67 µM (inactive)"}, {"smiles": "Cc1ccc(Nc2nc(N)nc(CCl)n2)c(C)c1", "EC50": "> 6.67 µM (inactive)"}, {"smiles": "O=C(CCN1C(=O)/C(=C\\c2cccc(Br)c2)SC1=S)NCCCN1CCOCC1", "EC50": "> 6.67 µM (inactive)"}, {"smiles": "CCN(CC)c1ccc(/C=N/NC(=O)c2nnn(-c3nonc3N)c2C(C)C)c(O)c1", "EC50": "0.954 µM"}, {"smiles": "O=C(CCl)N=c1sccn1Cc1ccccc1Cl", "EC50": "> 2.08 µM (inactive)"}, {"smiles": "Cc1cccc(OCC(=O)Nc2ccc(C(=O)NCc3cccnc3)cc2)c1", "EC50": "> 6.67 µM (inactive)"}, {"smiles": "Cc1cccc(Nc2nc(N)nc(CCl)n2)c1", "EC50": "> 6.67 µM (inactive)"}, {"smiles": "O=C(NCCOc1cccnc1)c1ccc(OC2CCN(Cc3ccccn3)CC2)cc1", "EC50": "5.19 µM"}, {"smiles": "CCc1ccc(/C=C2/SC(=S)N(CCC(=O)NCCCN3CCOCC3)C2=O)cc1", "EC50": "> 6.67 µM (inactive)"}, {"smiles": "O=C(Cc1ccc([N+](=O)[O-])cc1)N/N=C/c1ccc([N+](=O)[O-])o1", "EC50": "> 6.67 µM (inactive)"}, {"smiles": "COC(=O)C[C@](O)(CCCC(C)(C)O)C(=O)O[C@@H]1C(OC)=C[C@]23CCCN2CCc2cc4c(cc2[C@H]13)OCO4", "EC50": "0.00683 µM"}, {"smiles": "CC(C)C(=O)Nc1ccc(C(=O)NCc2cccnc2)cc1", "EC50": "> 6.67 µM (inactive)"}, {"smiles": "COc1ccc(Cc2nc(-c3ccc(NC(=O)c4cccnc4)cc3)no2)cc1", "EC50": "> 6.67 µM (inactive)"}, {"smiles": "COc1ccc(N(C(=O)CCl)C(C(=O)NCCc2ccccc2)c2cccs2)cc1", "note": "(stereo not drawn)", "EC50": "4.89 µM"}, {"smiles": "COC(=O)[C@@H]1Cc2c([nH]c3ccccc23)C(C)(C)N1C(=O)CCl", "EC50": "> 6.67 µM (inactive)"}, {"smiles": "CC[C@@]1(O)C(=O)OCc2c1cc1n(c2=O)Cc2cc3c(N)cccc3nc2-1", "EC50": "0.052 µM"}, {"smiles": "CCOc1ccc(CC(=O)Nc2ccc(NC(=O)c3ccco3)cc2)cc1OCC", "EC50": "> 6.67 µM (inactive)"}, {"smiles": "Cc1ccc(/C=C2\\SC(=S)N(CCCC(=O)N3CCOCC3)C2=O)cc1", "EC50": "> 6.67 µM (inactive)"}, {"smiles": "Cc1cccc(Nc2nc(N)nc(CCl)n2)c1C", "EC50": "> 6.67 µM (inactive)"}, {"smiles": "CCN1/C(=C\\C=C\\C2=[N+](CC)c3ccccc3C2(C)C)C(C)(C)c2ccccc21", "EC50": "0.287 µM"}, {"smiles": "CC[C@@]1(O)C(=O)OCc2c1cc1n(c2=O)Cc2cc3c(NC(=O)CN)cccc3nc2-1", "EC50": "5.85 µM"}, {"smiles": "C/C(=N\\Nc1ncc(Cl)cc1Cl)c1ccccn1", "EC50": "0.0273 µM"}, {"smiles": "C=C1C(=O)O[C@@H]2C[C@@H](C)[C@@H]3C=CC(=O)[C@@]3(C)[C@@H](OC(=O)CC(=O)O[C@H]3[C@@H]4C(=C)C(=O)O[C@@H]4C[C@@H](C)[C@@H]4C=CC(=O)[C@]43C)[C@H]12", "EC50": "0.144 µM"}, {"smiles": "O=C(NCc1cccnc1)c1ccc(NC(=O)c2ccc([N+](=O)[O-])cc2)cc1", "EC50": "> 6.67 µM (inactive)"}, {"smiles": "COc1cccc(N(C(=O)CCl)C(C(=O)NCCc2ccccc2)c2cccs2)c1", "note": "(stereo not drawn)", "EC50": "6.05 µM"}, {"smiles": "COc1cccc(/C=C2\\SC(=S)N(CCCC(=O)N(CCO)c3ccccc3)C2=O)c1", "EC50": "> 6.67 µM (inactive)"}, {"smiles": "CC1=CC(=O)C=C(C)C1=NOc1ccccc1[N+](=O)[O-]", "EC50": "> 6.67 µM (inactive)"}, {"smiles": "Nc1nc(CCl)nc(Nc2cccc3ccccc23)n1", "EC50": "> 6.67 µM (inactive)"}, {"smiles": "CC(C)(C)c1nnc(N/N=C/c2cc(Br)ccc2O)n(N)c1=O", "EC50": "1.91 µM"}, {"smiles": "CCc1ccc(/C=C2\\SC(=S)N(CCC(=O)NCCCN3CCOCC3)C2=O)cc1", "EC50": "> 6.67 µM (inactive)"}, {"smiles": "O=C(NCc1cccnc1)c1ccc(NC(=O)c2cccc([N+](=O)[O-])c2)cc1", "EC50": "> 6.67 µM (inactive)"}, {"smiles": "O=C(COc1ccc(Cl)cc1)Nc1ccc(C(=O)NCc2cccnc2)cc1", "EC50": "> 6.67 µM (inactive)"}, {"smiles": "COc1ccc(C(C(=O)NC2CCCCC2)N(C(=O)CCl)c2ccc(C)cc2)cc1", "note": "(stereo not drawn)", "EC50": "> 6.67 µM (inactive)"}, {"smiles": "COc1ccc(N(C(=O)CCl)C(C(=O)NCCc2ccccc2)c2cccs2)cc1Cl", "note": "(stereo not drawn)", "EC50": "> 2.08 µM (inactive)"}]}]}
